This note sets out measurements from ChEMBL document CHEMBL1126174 (J Med Chem, 1992).

The target in assay [1] is Muscarinic acetylcholine receptor.
Description: Ability to displace [3H]cis--2-methyl-5-((dimethylamino)methyl)-1,3-di oxolane from muscarinic acetylcholine receptor in rat cortical tissue.
In assay [2] the target is T1, Muscarinic acetylcholine receptor M1 (Rattus norvegicus) (UniProt P08482).
T1 sequence (whole entry): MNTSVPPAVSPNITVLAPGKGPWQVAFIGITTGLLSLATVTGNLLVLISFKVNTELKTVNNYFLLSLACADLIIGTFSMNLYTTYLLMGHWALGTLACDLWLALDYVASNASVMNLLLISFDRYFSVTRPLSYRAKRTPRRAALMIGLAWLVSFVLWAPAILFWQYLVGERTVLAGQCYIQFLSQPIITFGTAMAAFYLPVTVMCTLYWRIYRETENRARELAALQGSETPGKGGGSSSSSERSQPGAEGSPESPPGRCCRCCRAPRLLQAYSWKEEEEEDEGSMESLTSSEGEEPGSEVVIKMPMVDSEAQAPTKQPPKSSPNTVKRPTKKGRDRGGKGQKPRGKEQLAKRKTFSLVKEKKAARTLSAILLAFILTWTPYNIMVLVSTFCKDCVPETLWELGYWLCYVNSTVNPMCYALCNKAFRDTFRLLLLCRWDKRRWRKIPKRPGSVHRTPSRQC
The conditions noted are these: Cervical ganglion.

Assay [3] concerns the target Muscarinic acetylcholine receptor M3 (Cavia porcellus) (UniProt Q8VH26). The settings on record: Ileum.
Description: Peripheral postsynaptic muscarinic activity by contraction of the guinea pig ileum.
Assay [4] addresses T2, Muscarinic acetylcholine receptor M1 (Rattus norvegicus, UniProt P08482).
T2 sequence (P08482 whole entry): T1 sequence (whole entry)
Description: Ability to displace [3H]pirenzepine (pir) from muscarinic acetylcholine receptor M1 in rat cortical tissue.

Assay [5] has as its target T1, Muscarinic acetylcholine receptor M1 (Rattus norvegicus). The settings on record: Hippocampus.
The species named for assay [6] is Cavia porcellus. The assay is described as follows: (§1) Peripheral postsynaptic muscarinic activity was measured by contraction of the guinea pig ileum in M3 model. The class given is functional.
Assay [7] in a line: Ratio of binding affinities towards muscarinic receptor using Pir to that of CD as radioligand.
The target of assay [8] is T1, Muscarinic acetylcholine receptor M1 (Rattus norvegicus). Put plainly: Central postsynaptic muscarinic activity was measured by slow depolarization of the rat cervical ganglion in M1 model. It is filed as functional, tissue-based.
In assay [9] the target is Muscarinic acetylcholine receptor M3 (Cavia porcellus) (UniProt Q8VH26). The assay is described as follows: Peripheral postsynaptic muscarinic activity was measured relative to muscarine (100%). The class given is functional.
Chain of Muscarinic acetylcholine receptor M3 (Cavia porcellus) (Q8VH26 1-587): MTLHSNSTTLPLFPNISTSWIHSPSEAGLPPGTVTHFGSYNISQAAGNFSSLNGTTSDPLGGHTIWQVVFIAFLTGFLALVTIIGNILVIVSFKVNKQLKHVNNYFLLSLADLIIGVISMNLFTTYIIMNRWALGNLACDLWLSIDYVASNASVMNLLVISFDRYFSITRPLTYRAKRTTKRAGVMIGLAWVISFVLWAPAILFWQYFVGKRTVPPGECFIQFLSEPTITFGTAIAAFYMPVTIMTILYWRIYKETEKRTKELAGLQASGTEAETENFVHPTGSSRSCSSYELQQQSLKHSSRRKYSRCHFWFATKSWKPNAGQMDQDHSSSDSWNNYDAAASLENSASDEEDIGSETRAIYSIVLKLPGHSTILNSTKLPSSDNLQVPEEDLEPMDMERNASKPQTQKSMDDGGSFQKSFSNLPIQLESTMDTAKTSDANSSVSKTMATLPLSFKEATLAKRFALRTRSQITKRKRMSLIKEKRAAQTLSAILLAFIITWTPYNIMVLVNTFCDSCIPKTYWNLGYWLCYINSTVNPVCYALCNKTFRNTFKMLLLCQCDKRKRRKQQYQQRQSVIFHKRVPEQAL
For assay [10] the target is unchanged. Described as §1. It is filed as functional, tissue-based.
Assay [11] has as its target Muscarinic acetylcholine receptor. This is another data set of the same source.
Assay [12] concerns the target T1, Muscarinic acetylcholine receptor M1 (Rattus norvegicus). Put plainly: Central postsynaptic muscarinic activity was measured relative to muscurine (100%). The class given is functional, tissue-based.
For assay [13], the target named is T2, Muscarinic acetylcholine receptor M1. The assay is described as follows: Compound was tested for its ability to displace [3H]pirenzepine (pir) from M1 Muscarinic receptor in rat cortical tissue.
In assay [14] the target is T1, Muscarinic acetylcholine receptor M1 (Rattus norvegicus). The assay is described as follows: Neuronal postsynaptic muscarinic activity was measured by firing rate of the rat hippocampal CA1 neurons in M1 model. It is filed as functional, tissue-based. The conditions noted are these: Hippocampus.

SMILES strings stand for the structures.

As usually defined, the IC50 is the concentration that inhibits the measured activity by half. A high value points to weaker potency. Take `CC[C@@H]1C(=O)SC[C@@H]1Cc1cncn1C`: the figures for the half-maximal inhibitory concentration (IC50) in [1] and in assay [4] were 54 nM and 435 nM, respectively. The pD2 turned out to be 6.5 in assay [2], 5.3 in assay [3] and 5.3 in [5].

On to `C[C@@H]1O[C@H](C[N+](C)(C)C)C[C@H]1O`, for which the pD2 in assay [2] came out at 7.4; in [3] it was 6.8; in assay [5], 5.9.

On to `CC[C@H]1C(=O)N(C)C[C@@H]1Cc1cncn1C`, for which the half-maximal inhibitory concentration (IC50) in [1] and in [4] was 10000 nM each time. For the same molecule, the pD2 in assay [2] was 4.4; in assay [3] it was < 4; in [5] it was 4.1.

`C[N+](C)(C)CCOC(N)=O`: the pD2 was found to be 7.2 in assay [2], 6.7 in [3] and 6 in [5].

Turning to `CC[C@@H]1C(=O)NC[C@@H]1Cc1cncn1C`, the IC50 was determined as 845 nM in assay [1] and 5150 nM in assay [4]. Besides, the pD2 turned out to be 5.2 in [2], 4.2 in assay [3] and 4.5 in assay [5].

For `Cc1ccc(C[N+](C)(C)C)o1`, the IC50 in assay [1] was 5.6 nM; in assay [4], 1410 nM. In addition, the pD2 in [2] stood at 7.1; in assay [6], 6.8; in [5], 5.8.

As to `CC1OCC(CN(C)C)O1` (stereo unspecified), the IC50 in [1] was determined as 6.4 nM; in assay [4], 2100 nM. Moreover, the pD2 in [2] was found to be 7.8; in assay [3] it was 7.5; in [5] it was 6.3.

As to `CC[C@@H]1COC[C@@H]1Cc1cncn1C`, the half-maximal inhibitory concentration (IC50) came to 445 nM in assay [1] and 1800 nM in assay [4]. For the same molecule, the pD2 is 5.7 in assay [2], 4.5 in assay [3] and < 4 in assay [5].

Regarding `CC[C@@H]1C(O)SC[C@@H]1Cc1cncn1C` (stereo partly specified), the values for the IC50 in [1] and in assay [4] were 705 nM and 695 nM, respectively. The pD2 is 4.4 in assay [2], < 4 in assay [3] and < 4 in [5].

On to `O=C1CCCN1CC#CCN1CCCC1` [OXOTREMORINE], for which the figures for the half-maximal inhibitory concentration (IC50) in [1] and in assay [4] were 2.8 nM and 113 nM, respectively. Besides, the pD2 in assay [2] is 8; in assay [3] it was 7.1; in assay [5], 7.1.

`CC[C@H]1C(=O)NC[C@@H]1Cc1cncn1C`: the IC50 is 800 nM in assay [1] and 9950 nM in [4]. Moreover, the pD2 turned out to be 5.6 in [2], 4.6 in [3] and 4.7 in assay [5].

On to `CC[C@@H]1C(=O)N(C)C[C@@H]1Cc1cncn1C`, for which the IC50 was 4600 nM in [1] and 10200 nM in [4]. Further, the pD2 in assay [2] was 100; in assay [3] it was 4.2.

For `CC[C@H]1C(O)SC[C@@H]1Cc1cncn1C` (stereo partly specified), the IC50 in assay [1] is 330 nM; in assay [4], 285 nM. Further, the pD2 is 4.7 in [2], < 4 in assay [3] and < 4 in [5].

On to `CC[C@H]1C(=S)SC[C@@H]1Cc1cncn1C`, for which the IC50 in assay [1] worked out at 45 nM; in [4], 51 nM. The pD2 in assay [2] is 5.2; in [3], 5.6.

As to `Cn1cncc1C[C@H]1COC(=O)C1` [PILOSININE], the concentration for half-maximal inhibition (IC50) in [1] was 2890 nM; in [4] it was 10000 nM. For the same molecule, the pD2 in assay [2] is 4.2; in [3], < 4.

In the case of `CC[C@@H]1C(O)OC[C@@H]1Cc1cncn1C` (stereo partly specified), the Ratio in [7] was 2.4. Further, the pD2 in assay [8] is 5.9; in assay [10], 5.2; in assay [14] it was < 4. Also, the Efficiency in [9] was 22%; in [12], 65%. For the same molecule, the IC50 in [11] amounted to 45000 nM; in assay [13], 110000 nM.

On to `CC[C@H]1C(=O)SC[C@@H]1Cc1cncn1C`, for which the half-maximal inhibitory concentration (IC50) in assay [1] is 320 nM; in assay [4], 775 nM. For the same molecule, the results for the pD2 in assay [2], in [3] and in [5] were 4.7, 4.8 and 5.4, respectively.

For the molecule `CCN1C(=O)OC[C@@H]1Cc1cncn1C`, the results for the IC50 in [1] and in assay [4] were 100 nM and 288 nM, respectively. Moreover, the pD2 was 6.1 in assay [2], 5.4 in [3] and 5.6 in assay [5].
